Consider 7 molecules from article PMC9945734 (BMC Medicine, 2023).

Where two headings read alike, the source gives them in different places. Where only a bound is given, the exact number is not on record here.

One test concerns the target T1, KLF5 protein (Homo sapiens, UniProt Q13887).
T1 construct: made in house; host or cells: E. coli BL21 DE3
Kind of test: Fluorescence titration (quenching) of KLF5 protein. To be noted: read-out: binding constant Kd. On the procedure:
(§1) Wild-type or mutant KLF5 protein at 1 μM in 2 mL PBS was measured for fluorescence spectrum using a fluorescence spectrometer (HORIBA, Kyoto, Japan), and the fluorescence spectra were obtained for wavelengths of 300–500 nm. NTZ with various concentration ranges and various increments were used in the analysis, including 0.1–1 μM with an increment of 0.1 μM, 1–5 μM with an increment of 0.5 μM, 5–10 μM with an increment of 1 μM, and 10–30 μM with an increment of 5 μM. The incubation with NTZ was for 5 s at room temperature. Data were processed and fitted to obtain the binding affinities using the Origin software (OriginLab, Northampton, MA, USA), and Kd values were determined by the responses at […] wavelength.

The target of the next test is T2, KLF5^K369Q protein (Homo sapiens, UniProt Q13887, K369Q).
T2 construct: made in house; host or cells: E. coli BL21 DE3
Kind of test: Fluorescence titration (quenching) of KLF5 protein. Conditions: read-out: binding constant Kd. Here is the method: as §1

Another test addresses T3, KLF5^K369R protein (Homo sapiens, UniProt Q13887, K369R).
T3 construct: made in house; host or cells: E. coli BL21 DE3
Kind of test: Fluorescence titration (quenching) of KLF5 protein. To be noted: read-out: binding constant Kd. On the procedure:
as §1

In a further test the test system is PC-3-KQ cells. Briefly: 3D spheroid invasion assay and screening of FDA-approved drugs. It counts as cell-based, human. To be noted: for activity at 0.01 µM / activity at 0.1 µM / activity at 1 µM / activity at 10 µM / inhibition at 0.1 µM: Homo sapiens; for activity at 0.01 µM / activity at 0.1 µM / activity at 1 µM / activity at 10 µM: 72 h, read-out: Invasion rates (%) of each drug’s multiple concentrations; for activity at 0.01 µM / activity at 0.1 µM / activity at 1 µM / activity at 10 µM / Invasion rates (%) of each drug’s multiple concentrations (μM): compared to vehicle control; for inhibition at 0.1 µM: read-out: inhibition of cell invasion. Put shortly:
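Cells were clustered into spheroids by centrifugation and grown 3 days, then embedded in matrigel-medium containing drug on day 4 and cultured another 3 days. Drugs were screened at 10 μM first, then at 0–10 μM, in duplicate wells. Invasion area is total area minus core sphere area from phase-contrast images.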

In test [1] the test system is DU 145 (KLF5 null) cells expressing KLF5^K369R. Briefly: CCK-8 cell viability assay. It counts as cell-based. Conditions: Homo sapiens, CCK-8, 48 h. Here is the method: (§2) According to the manufacturer's instructions, cell viability was measured using a kit from Beyotime Biotechnology. Briefly, cells were seeded onto 96-well plates at 5 × 10^3 cells per well, incubated overnight, and then treated for 48 h with drugs at 0, 0.02, 0.05, 0.14, 0.41, 1.23, 3.7, 11.1, 33.3, and 100 μM. Four drugs were analyzed: furagin, nifuratel, nitazoxanide, and retapamulin. At the end of drug treatment, the medium was removed, the CCK-8 solution was added into each well at 100 μL/well and incubated for 1.5 h at 37°C, and the optical density (OD) was measured at 450 nm using a microplate reader (BioTek).
(Tetrazolium assays rely on reduction of a dye to a coloured formazan, in cell work by metabolically active cells.)

Test [2] deals with DU 145 (KLF5 null) cells expressing KLF5. Briefly: CCK-8 cell viability assay. It counts as cell-based. To be noted: Homo sapiens, CCK-8, 48 h. Here is the method: as §2
The subject of test [3] is PC-3 (KLF5 null) cells expressing KLF5^K369R. Briefly: CCK-8 cell viability assay. In kind it is cell-based. To be noted: Homo sapiens, CCK-8, 48 h. Here is the method:
as §2

Test [4] concerns PC-3 (KLF5 null) cells expressing KLF5. Briefly: CCK-8 cell viability assay. To be noted: Homo sapiens, CCK-8, 48 h. It counts as cell-based. Here is the method: as §2
The test system of test [5] is DU 145 (KLF5 null) cells expressing KLF5^K369Q. Briefly: CCK-8 cell viability assay. In kind it is cell-based, human. To be noted: Homo sapiens; DU 145 (KLF5 null), KLF5^K369Q; CCK-8, 48 h. Here is the method: as §2
(§3) We also tested a wider range of NTZ concentrations in PC-3-KQ and DU 145-KQ cells using the CCK-8 assay by seeding 2 × 10^3 cells and 2.5 × 10^3 cells onto each well of 96-well plates. PC-3-KQ cells were treated with NTZ at 0, 0.01, 0.1, […], 2.5, and 5 μM, while DU 145-KQ cells were treated with NTZ at 0, 0.01, 0.1, 5, 10, and 20 μM for 0, 24, 48, and 72 h. The number of viable cells was determined using the CCK-8 solution as described above.

Test [6] relates to PC-3 (KLF5 null) cells expressing KLF5^K369Q. Kind of test: CCK-8 cell viability assay. In kind it is cell-based, human. To be noted: Homo sapiens; PC-3 (KLF5 null), KLF5^K369Q; CCK-8, 48 h. On the procedure:
as §2, §3

[7] abbreviates: 0.01 μM (first column so headed), secondary screening of 87 hit compounds (Table S1).
Where [8] appears, read: 0.01 μM (first column so headed), third screening of 25 hit compounds (Table S2).
Setting [9] is: 0.01 μM (second column so headed), secondary screening of 87 hit compounds (Table S1).
[10] abbreviates: 0.01 μM (second column so headed), third screening of 25 hit compounds (Table S2).
[11] abbreviates: 0.1 μM, secondary screening of 87 hit compounds (Table S1).
Where [12] appears, read: 0.1 μM, third screening of 25 hit compounds (Table S2).
[13] abbreviates: 1 μM, secondary screening of 87 hit compounds (Table S1).
The mark [14] stands for this setting: 1 μM, third screening of 25 hit compounds (Table S2).
Setting [15] is: 10 μM, secondary screening of 87 hit compounds (Table S1).
Setting [16] is: 10 μM, third screening of 25 hit compounds (Table S2).

T1 sequence (Q13887 whole entry): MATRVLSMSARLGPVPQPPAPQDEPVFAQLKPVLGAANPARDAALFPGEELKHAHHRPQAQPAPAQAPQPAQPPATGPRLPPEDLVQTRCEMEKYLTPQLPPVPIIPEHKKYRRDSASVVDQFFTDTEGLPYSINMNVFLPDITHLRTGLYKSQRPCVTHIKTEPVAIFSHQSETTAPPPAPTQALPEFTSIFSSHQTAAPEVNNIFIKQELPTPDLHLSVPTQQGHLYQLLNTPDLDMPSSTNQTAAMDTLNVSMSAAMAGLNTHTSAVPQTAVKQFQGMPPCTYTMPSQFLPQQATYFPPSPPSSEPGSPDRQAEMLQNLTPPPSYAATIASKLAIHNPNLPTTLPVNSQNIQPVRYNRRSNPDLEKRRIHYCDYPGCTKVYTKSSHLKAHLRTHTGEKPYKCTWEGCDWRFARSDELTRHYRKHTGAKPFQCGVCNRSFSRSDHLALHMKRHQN
T3 sequence (Q13887 whole entry K369R): as the sequence (Q13887 whole entry) above, with K369R counted along it
T2 sequence (Q13887 whole entry K369Q): as the sequence (Q13887 whole entry) above, with K369Q counted along it

What is called Kd is the concentration at which binding is half-saturated. Consider `CC1(C)CCC(C)(C)c2cc(NC(=O)c3ccc(C(=O)O)cc3)ccc21` [Am80], for which the Kd on KLF5 protein, on KLF5^K369Q protein and on KLF5^K369R protein was greater than 30 µM in each case.

As a reminder, the inhibition is the percentage by which the read-out fell short of the control. For orientation: IC50 means the point on the concentration scale where inhibition reaches its midpoint. As to `O=C1CN(/N=C/C=C/c2ccc([N+](=O)[O-])o2)C(=O)N1` [Furagin], the activity at 0.01 µM came to 24.8% in the test on PC-3-KQ cells (setting [7]), 77.1% in the test with PC-3-KQ cells (setting [8]), 42.2% with PC-3-KQ cells (setting [9]) and 97.5% in the test on PC-3-KQ cells (setting [10]). Besides, the activity at 0.1 µM in the test on PC-3-KQ cells (setting [11]) is 5.95%; with PC-3-KQ cells (setting [12]), 2.26%. Besides, the activity at 1 µM with PC-3-KQ cells (setting [13]) was determined as 3.36%; in the test on PC-3-KQ cells (setting [14]) it was 2.3%. Besides, the activity at 10 µM in the test on PC-3-KQ cells (setting [15]) was 2.18%; with PC-3-KQ cells (setting [16]), 1.29%. Further, the inhibition at 0.1 µM with PC-3-KQ cells is greater than 50%. For the same molecule, the IC50 turned out to be 359 ± 127 µM in [1]; 31.4 ± 4 µM in [2]; 101 ± 27.9 µM in test [3]; 17.3 ± 2.2 µM in test [4]; 63.3 ± 2.4 µM in test [5]; 28.6 ± 1.9 µM in test [6].

Turning to `CSCC1CN(/N=C/c2ccc([N+](=O)[O-])o2)C(=O)O1` (stereo not shown) [Nifuratel], the activity at 0.01 µM in the test on PC-3-KQ cells (setting [7]) came to 70%; in the test on PC-3-KQ cells (setting [8]), 59.9%; with PC-3-KQ cells (setting [9]), 82.6%; with PC-3-KQ cells (setting [10]), 93.9%. Moreover, the activity at 0.1 µM with PC-3-KQ cells (setting [11]) turned out to be 60.6%; in the test on PC-3-KQ cells (setting [12]), 7.32%. Besides, the activity at 1 µM is 8.43% in the test on PC-3-KQ cells (setting [13]) and 3.12% with PC-3-KQ cells (setting [14]). Besides, the activity at 10 µM in the test with PC-3-KQ cells (setting [15]) worked out at 0.26%; in the test with PC-3-KQ cells (setting [16]), 1.46%. For the same molecule, in the test on PC-3-KQ cells, the inhibition at 0.1 µM was greater than 50%. The IC50 in test [1] was 14 ± 0.2 µM; in test [2], 7.1 ± 0.7 µM; in [3] it was 18.7 ± 1 µM; in [4], 32 ± 1.6 µM; in [5], 16.2 ± 0.8 µM; in [6], 18.6 ± 0.7 µM.

As to `C=C[C@]1(C)C[C@@H](OC(=O)CS[C@@H]2C[C@H]3CC[C@@H](C2)N3C)[C@]2(C)[C@H](C)CC[C@]3(CCC(=O)[C@H]32)[C@@H](C)[C@@H]1O` [Retapamulin], the values for the activity at 0.01 µM in the test on PC-3-KQ cells (setting [7]), in the test with PC-3-KQ cells (setting [8]) and with PC-3-KQ cells (setting [10]) were 7.43%, 74.4% and 94.3%, respectively. Further, the activity at 0.1 µM in the test on PC-3-KQ cells (setting [11]) came out at 7.18%; with PC-3-KQ cells (setting [12]), 4.92%. For the same molecule, the activity at 1 µM worked out at 7.28% with PC-3-KQ cells (setting [13]) and 1.65% in the test with PC-3-KQ cells (setting [14]). For the same molecule, the values for the activity at 10 µM in the test on PC-3-KQ cells (setting [15]) and with PC-3-KQ cells (setting [16]) were 4.68% and 2.42%, respectively. Moreover, in the test on PC-3-KQ cells, the inhibition at 0.1 µM is greater than 50%. Further, the IC50 in test [1] is 11.1 ± 0.8 µM; in [2], 13.7 ± 2.7 µM; in test [3], 12.2 ± 1.1 µM; in test [4], 1.6 ± 0.3 µM; in [5], 14.7 ± 1.5 µM; in [6], 12.6 ± 2.3 µM.

Daptomycin: the “Invasion rates (%) of each drug’s multiple concentrations (μM)” value (“Invasion rates (%)” below) worked out at 96.29% in the test on PC-3-KQ cells (setting [7]); 96.99% with PC-3-KQ cells (setting [9]); 95.71% with PC-3-KQ cells (setting [11]); 88.47% in the test on PC-3-KQ cells (setting [13]); 1.26% in the test on PC-3-KQ cells (setting [15]).

Turning to Gramicidin, the “Invasion rates (%)” value with PC-3-KQ cells (setting [9]) was 107.53%; in the test on PC-3-KQ cells (setting [11]) it was 94.19%; in the test with PC-3-KQ cells (setting [13]), 93.53%; in the test on PC-3-KQ cells (setting [15]) it was 0.41%.

As to Spiramycin, the “Invasion rates (%)” value in the test on PC-3-KQ cells (setting [7]) stood at 90.26%; in the test on PC-3-KQ cells (setting [9]), 91.77%; with PC-3-KQ cells (setting [11]), 85.48%; in the test on PC-3-KQ cells (setting [13]) it was 80.28%; with PC-3-KQ cells (setting [15]), 55.32%.
